Reference: patent US11254663B2 (BRISTOL-MYERS SQUIBB COMPANY, priority 2019, dated 2022)

What follows are molecules tested against FXR (Homo sapiens (Human), UniProt Q96RI1) (assay: transient human FXR/Gal4-luciferase reporter assay). Settings: Gal4-hFXR fusion construct, HEK293 reporter cells; response relative to 8 μM GW-4064.
Format: cell-based
Description: A Gal4-hFXR fusion construct reporter system was used as the primary assay to characterize compound activity. A construct including 5 copies of the Gal4 promoter response element upstream of a firefly luciferase reporter cDNA was stably expressed in HEK293 cells. This reporter cell line was maintained in Dulbecco's Modified Eagle's medium (DMEM; Gibco) supplemented with 1% penicillin-streptomycin (P/S) solution, 500 μg/mL Zeocin and 10% charcoal/dextran-treated fetal bovine serum (cs-FBS) at 37° C. in a humidified 5% CO2 atmosphere. Another plasmid was constructed in which the human cytomegalovirus promoter in the pcDNA3.1 vector directs the expression of the cDNA encoding a fusion protein comprised of the DNA binding domain from the Gal4 transcription factor fused to the ligand binding domain from human FXR.
The day prior to transfection, the reporter cells in culture are detached from the plate with trypsin and plated into a T75 flask at a sufficient density to achieve approximately 90% confluence the next morning. The transfection reagents are prepared by separately diluting 25 μg of the pcDNA3.1-Gal4-FXR plasmid into 1.87 mL of Opti-MEM (Thermo-Fisher), and 40 μL of Lipofectamine 2000 (Thermo-Fisher) into 1.87 mL of Opti-MEM, and then adding the diluted DNA solution into the diluted Lipofectamine 2000 solution and incubating at room temperature for 15-20 minutes. The mixture is further diluted with 10 mL of a solution comprised of DMEM, 10% cs-FBS, and 1% P/S immediately prior to transferring to the cells. The maintenance culture media is aspirated from the cells and the final transfection mixture is added before the cells are incubated overnight at 37° C. in a humidified 5% CO2 atmosphere. This protocol can be scaled up, and the transiently transfected cells can be cryopreserved in an assay-ready format.
For compound testing, 100 nL of the compounds (serial dilutions in DMSO) are dispensed with an Echo acoustic dispenser (Labcyte) into the wells of a Corning/Costar clear bottom 384-well white plate. The transfected cells are harvested, counted, and diluted such that 10-25,000 cells in 25 μL are plated into each well of the 384-well compound assay plate. The compound-treated cells are incubated overnight at 37° C. in a humidified 5% CO2 atmosphere. The next morning 25 μL of Steady-Glo (Promega) are added to each well of the plate, the mixture is incubated for 15 min. with shaking, and luminescence is measured on an Envision (Perkin Elmer) plate reader.

Sequence of FXR (Q96RI1 262-486): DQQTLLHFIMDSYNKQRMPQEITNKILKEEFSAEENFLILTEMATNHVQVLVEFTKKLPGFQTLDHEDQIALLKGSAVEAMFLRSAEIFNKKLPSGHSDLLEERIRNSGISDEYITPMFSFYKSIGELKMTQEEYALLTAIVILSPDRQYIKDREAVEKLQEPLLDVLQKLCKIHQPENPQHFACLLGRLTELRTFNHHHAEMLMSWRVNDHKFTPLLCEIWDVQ

`COc1ncc(-c2cccc(N(CC34CCC(c5nc(C6CC6)no5)(CC3)CC4)C(=O)C34CC(F)(C3)C4)c2)cn1` [Example 248, N-((4-(3-cyclopropyl-1,2,4-oxadiazol-5-yl)bicyclo[2.2.2]octan-1-yl)methyl)-3-fluoro-N-(3-(2-methoxypyrimidin-5-yl)phenyl)bicyclo[1.1.1]pentane-1-carboxamide] and `COc1ccc(-c2cccc(N(CC34CCC(c5nc(C6CC6)no5)(CC3)CC4)C(=O)C34CC(F)(C3)C4)c2)cn1` [Example 249, N-((4-(3-cyclopropyl-1,2,4-oxadiazol-5-yl)bicyclo[2.2.2]octan-1-yl)methyl)-3-fluoro-N-(3-(6-methoxypyridin-3-yl)phenyl)bicyclo[1.1.1]pentane-1-carboxamide] are within 1.5-fold of each other in EC50: 154 nM for the first, 153 nM for the second.

`O=C(N(CC12CCC(c3nc(C4CC4)no3)(CC1)CC2)c1cccc(-c2cc(Cl)cc(Cl)c2)c1)C12CC(F)(C1)C2` [Example 250, N-((4-(3-cyclopropyl-1,2,4-oxadiazol-5-yl)bicyclo[2.2.2]octan-1-yl)methyl)-N-(3′,5′-dichloro-[1,1′-biphenyl]-3-yl)-3-fluorobicyclo[1.1.1]pentane-1-carboxamide] and `COc1cc(-c2cccc(N(CC34CCC(c5nc(C6CC6)no5)(CC3)CC4)C(=O)C34CC(F)(C3)C4)c2)ccc1F` [Example 260, N-((4-(3-cyclopropyl-1,2,4-oxadiazol-5-yl)bicyclo[2.2.2]octan-1-yl)methyl)-3-fluoro-N-(4′-fluoro-3′-methoxy-[1,1′-biphenyl]-3-yl)bicyclo[1.1.1]pentane-1-carboxamide] are within 1.5-fold of each other in EC50: 778 nM for the first, 693 nM for the second.

`O=C(N(CC12CCC(c3nc(C4CC4)no3)(CC1)CC2)c1cccc(-c2ccc(OC(F)(F)F)cc2)c1)C12CC(F)(C1)C2` [Example 251, N-((4-(3-cyclopropyl-1,2,4-oxadiazol-5-yl)bicyclo[2.2.2]octan-1-yl)methyl)-3-fluoro-N-(4′-(trifluoromethoxy)-[1,1′-biphenyl]-3-yl)bicyclo[1.1.1]pentane-1-carboxamide] and `O=C(N(CC12CCC(c3nc(C4CC4)no3)(CC1)CC2)c1cccc(-c2ccc(C(F)(F)F)cc2)c1)C12CC(F)(C1)C2` [Example 253, N-((4-(3-cyclopropyl-1,2,4-oxadiazol-5-yl)bicyclo[2.2.2]octan-1-yl)methyl)-3-fluoro-N-(4′-(trifluoromethyl)-[1,1′-biphenyl]-3-yl)bicyclo[1.1.1]pentane-1-carboxamide] are within 1.5-fold of each other in EC50: 277 nM for the first, 250 nM for the second.

First: O=C(N(CC12CCC(c3nc(C4CC4)no3)(CC1)CC2)c1cccc(-c2cccc(C(F)(F)F)c2)c1)C12CC(F)(C1)C2 [Example 252, N-((4-(3-cyclopropyl-1,2,4-oxadiazol-5-yl)bicyclo[2.2.2]octan-1-yl)methyl)-3-fluoro-N-(3′-(trifluoromethyl)-[1,1′-biphenyl]-3-yl)bicyclo[1.1.1]pentane-1-carboxamide]
Second: O=C(N(CC12CCC(c3nc(C4CC4)no3)(CC1)CC2)c1cccc(-c2cccc(OC(F)(F)F)c2)c1)C12CC(F)(C1)C2 [Example 259, N-((4-(3-cyclopropyl-1,2,4-oxadiazol-5-yl)bicyclo[2.2.2]octan-1-yl)methyl)-3-fluoro-N-(3′-(trifluoromethoxy)-[1,1′-biphenyl]-3-yl)bicyclo[1.1.1]pentane-1-carboxamide]
The EC50 of the first is 3.1-fold higher: 833 nM for the first, 268 nM for the second.

`CC(=O)Nc1cccc(-c2cccc(N(CC34CCC(c5nc(C6CC6)no5)(CC3)CC4)C(=O)C34CC(F)(C3)C4)c2)c1` [Example 254, N-(3′-acetamido-[1,1′-biphenyl]-3-yl)-N-((4-(3-cyclopropyl-1,2,4-oxadiazol-5-yl)bicyclo[2.2.2]octan-1-yl)methyl)-3-fluorobicyclo[1.1.1]pentane-1-carboxamide] and `CS(=O)(=O)Nc1cccc(-c2cccc(N(CC34CCC(c5nc(C6CC6)no5)(CC3)CC4)C(=O)C34CC(F)(C3)C4)c2)c1` [Example 256, N-((4-(3-cyclopropyl-1,2,4-oxadiazol-5-yl)bicyclo[2.2.2]octan-1-yl)methyl)-3-fluoro-N-(3′-(methylsulfonamido)-[1,1′-biphenyl]-3-yl)bicyclo[1.1.1]pentane-1-carboxamide] are within 1.5-fold of each other in EC50: 241 nM for the first, 219 nM for the second.

`O=C(N(CC12CCC(c3nc(C4CC4)no3)(CC1)CC2)c1cccc(-c2ccc3c(c2)OCO3)c1)C12CC(F)(C1)C2` [Example 255, N-(3-(benzo[d][1,3]dioxol-5-yl)phenyl)-N-((4-(3-cyclopropyl-1,2,4-oxadiazol-5-yl)bicyclo[2.2.2]octan-1-yl)methyl)-3-fluorobicyclo[1.1.1]pentane-1-carboxamide] and `O=C(N(CC12CCC(c3nc(C4CC4)no3)(CC1)CC2)c1cccc(-c2ccc3[nH]c(=O)oc3c2)c1)C12CC(F)(C1)C2` [Example 261, N-((4-(3-cyclopropyl-1,2,4-oxadiazol-5-yl)bicyclo[2.2.2]octan-1-yl)methyl)-3-fluoro-N-(3-(2-oxo-2,3-dihydrobenzo[d]oxazol-6-yl)phenyl)bicyclo[1.1.1]pentane-1-carboxamide] are within 1.5-fold of each other in EC50: 69.8 nM for the first, 48 nM for the second.

`NS(=O)(=O)c1cccc(-c2cccc(N(CC34CCC(c5nc(C6CC6)no5)(CC3)CC4)C(=O)C34CC(F)(C3)C4)c2)c1` [Example 257, N-((4-(3-cyclopropyl-1,2,4-oxadiazol-5-yl)bicyclo[2.2.2]octan-1-yl)methyl)-3-fluoro-N-(3′-sulfamoyl-[1,1′-biphenyl]-3-yl)bicyclo[1.1.1]pentane-1-carboxamide] and `N#Cc1cccc(-c2cccc(N(CC34CCC(c5nc(C6CC6)no5)(CC3)CC4)C(=O)C34CC(F)(C3)C4)c2)c1` [Example 258, N-(3′-cyano-[1,1′-biphenyl]-3-yl)-N-((4-(3-cyclopropyl-1,2,4-oxadiazol-5-yl)bicyclo[2.2.2]octan-1-yl)methyl)-3-fluorobicyclo[1.1.1]pentane-1-carboxamide] are within 1.5-fold of each other in EC50: 521 nM for the first, 479 nM for the second.

First: O=C(N(CC12CCC(c3nc(C4CC4)no3)(CC1)CC2)c1cccc(-c2cnc(C(F)(F)F)nc2)c1)C12CC(F)(C1)C2 [Example 262, N-((4-(3-cyclopropyl-1,2,4-oxadiazol-5-yl)bicyclo[2.2.2]octan-1-yl)methyl)-3-fluoro-N-(3-(2-(trifluoromethyl)pyrimidin-5-yl)phenyl)bicyclo[1.1.1]pentane-1-carboxamide]
Second: O=C(N(CC12CCC(c3nc(C4CC4)no3)(CC1)CC2)c1cccc(-c2cc(C(F)(F)F)c3ncnn3c2)c1)C12CC(F)(C1)C2 [Example 263, N-((4-(3-cyclopropyl-1,2,4-oxadiazol-5-yl)bicyclo[2.2.2]octan-1-yl)methyl)-3-fluoro-N-(3-(8-(trifluoromethyl)-[1,2,4]triazolo[1,5-a]pyridin-6-yl)phenyl)bicyclo[1.1.1]pentane-1-carboxamide]
The EC50 of the first is 19-fold lower: 140 nM for the first, 2710 nM for the second. The first is the more potent here.

For `COc1cc(-c2cccc(N(CC34CCC(c5nc(C6CC6)no5)(CC3)CC4)C(=O)C34CC(F)(C3)C4)c2)cn2ncnc12` [Example 264, N-((4-(3-cyclopropyl-1,2,4-oxadiazol-5-yl)bicyclo[2.2.2]octan-1-yl)methyl)-3-fluoro-N-(3-(8-methoxy-[1,2,4]triazolo[1,5-a]pyridin-6-yl)phenyl)bicyclo[1.1.1]pentane-1-carboxamide], the EC50 was 1500 nM.
